Key:
Gal4-RORγ-LBD = biological target: T1, Gal4-RORγ-LBD (Homo sapiens, UniProt P51449); assay: Gal4-RORγ Luciferase Reporter Assay in HEK-293T Cells; format: cell-based; details: HEK-293 cells, luciferase reporter, with ursolic acid
T1 construct: expressed in transfected cells
T1 sequence (P51449 269-508 limits assumed): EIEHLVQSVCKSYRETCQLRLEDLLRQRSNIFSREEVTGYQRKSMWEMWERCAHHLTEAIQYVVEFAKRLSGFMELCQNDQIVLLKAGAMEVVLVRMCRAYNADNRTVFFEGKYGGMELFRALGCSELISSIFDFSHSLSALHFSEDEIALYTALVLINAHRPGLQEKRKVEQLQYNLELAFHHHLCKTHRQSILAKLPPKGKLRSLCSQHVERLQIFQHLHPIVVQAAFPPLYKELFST
Method in brief: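 Max Response was taken as the upper plateau of a 4-parameter logistic fit of luciferase signal, normalized to 100 for wells without ursolic acid or compound. Transiently Gal4-RORγ-LBD/Gal4-luc transfected HEK-293 cells carrying […] ursolic acid were incubated with test compounds (0.2% DMSO) overnight at 37 °C and read with One-Glo.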

RORγ-LBD = biological target: T2, RORγ-LBD (Homo sapiens, UniProt P51449); assay: RORγ-Ligand Binding Domain (LBD) TR-FRET Assay; format: biochemical; details: RORγ-LBD TR-FRET
T2 construct: made in house; host or cells: SF9 cells (baculovirus); used as diluted lysate
T2 sequence (P51449 269-508 limits assumed): T1 sequence (P51449 269-508 limits assumed)
Method in brief: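 TR-FRET read-out using a biotin-tagged SRC1 coactivator LXXLL peptide (200 nM final), with the antagonist ursolic acid present at 2 μM final. Receptor is His-tagged LBD expressed in SF9 cells, ~3 nM final in pH 7.0 Tris/KCl/EDTA/DTT/BSA buffer; compounds in 1% DMSO final.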

Row | Structure (SMILES) | EC50 (Gal4-RORγ-LBD) | EC50 (RORγ-LBD)
1 | O=C(O)CC[C@H]1CN(S(=O)(=O)c2cccc(C(F)(F)F)c2)c2cc(/C=C/c3cccc(F)c3Cl)ccc2O1 [Example 89BP, (S,E)-3-(6-(2-chloro-3-fluorostyryl)-4-((3-(trifluoromethyl)phenyl)sulfonyl)-3,4-dihydro-2H-benzo[b][1,4]oxazin-2-yl)propanoic acid] | > 10 µM | < 0.5 µM
2 | COC(=O)CC[C@H]1CN(S(=O)(=O)c2cccc(C(F)(F)F)c2)c2cc(/C=C/c3cccc(F)c3Cl)ccc2O1 [Example 89BQ, (S,E)-methyl 3-(6-(2-chloro-3-fluorostyryl)-4-((3-(trifluoromethyl)phenyl)sulfonyl)-3,4-dihydro-2H-benzo[b][1,4]oxazin-2-yl)propanoate] | 0.5 to 5 µM | < 0.5 µM
3 | N#Cc1cccc(/C=C/c2ccc3c(c2)N(S(=O)(=O)c2cccc(C(F)(F)F)c2)C[C@H](CCC(=O)O)O3)c1F [Example 89BW, (S,E)-3-(6-(3-cyano-2-fluorostyryl)-4-((3-(trifluoromethyl)phenyl)sulfonyl)-3,4-dihydro-2H-benzo[b][1,4]oxazin-2-yl)propanoic acid] | > 10 µM | < 0.5 µM
4 | O=C(O)CC[C@H]1CN(S(=O)(=O)c2cccc(OC(F)F)c2)c2cc(/C=C/c3ccccn3)ccc2O1 [Example 89C, (S,E)-3-(4-((3-(difluoromethoxy)-phenyl)sulfonyl)-6-(2-(pyridin-2-yl)vinyl)-3,4-dihydro-2H-benzo[b][1,4]oxazin-2-yl)propanoic acid] | 5 to 10 µM | 0.5 to 5 µM
5 | Cc1ccc(F)c(/C=C/c2ccc3c(c2)N(S(=O)(=O)c2cccc(C(F)(F)F)c2)C[C@H](CCC(=O)O)O3)c1 [Example 89CA, (S,E)-3-(6-(2-fluoro-5-methylstyryl)-4-((3-(trifluoromethyl)phenyl)sulfonyl)-3,4-dihydro-2H-benzo[b][1,4]oxazin-2-yl)propanoic acid] | > 10 µM | < 0.5 µM
6 | O=C(O)CC[C@H]1CN(S(=O)(=O)c2cccc(C(F)(F)F)c2)c2cc(/C=C/c3ccncn3)ccc2O1 [Example 89CC, (S,E)-3-(6-(2-(pyrimidin-4-yl)vinyl)-4-((3-(trifluoromethyl)-phenyl)sulfonyl)-3,4-dihydro-2H-benzo[b][1,4]oxazin-2-yl)propanoic acid] | > 10 µM | > 10 µM
7 | O=C(O)CC[C@H]1CN(S(=O)(=O)c2cccc(C(F)(F)F)c2)c2cc(/C=C/c3cccnc3Cl)ccc2O1 [Example 89CD, (S,E)-3-(6-(2-(2-chloropyridin-3-yl)vinyl)-4-((3-(trifluoromethyl)-phenyl)sulfonyl)-3,4-dihydro-2H-benzo[b][1,4]oxazin-2-yl)-propanoic acid] | 0.5 to 5 µM | < 0.5 µM
8 | O=C(O)CC[C@H]1CN(S(=O)(=O)c2cccc(C(F)(F)F)c2)c2cc(/C=C/c3ncccc3F)ccc2O1 [Example 89CE, (S,E)-3-(6-(2-(3-fluoropyridin-2-yl)vinyl)-4-((3-(trifluoromethyl)phenyl)sulfonyl)-3,4-dihydro-2H-benzo[b][1,4]oxazin-2-yl)propanoic acid] | 0.5 to 5 µM | < 0.5 µM
9 | Cc1cnc(/C=C/c2ccc3c(c2)N(S(=O)(=O)c2cccc(C(F)(F)F)c2)C[C@H](CCC(=O)O)O3)c(F)c1 [Example 89CF, (S,E)-3-(6-(2-(3-fluoro-5-methylpyridin-2-yl)vinyl)-4-((3-(trifluoromethyl)phenyl)sulfonyl)-3,4-dihydro-2H-benzo[b][1,4]-oxazin-2-yl)propanoic acid] | > 10 µM | 0.5 to 5 µM
10 | Cc1ccc(F)c(/C=C/c2ccc3c(c2)N(S(=O)(=O)c2cccc(C(F)(F)F)c2)C[C@H](CCC(=O)O)O3)n1 [Example 89CG, (S,E)-3-(6-(2-(3-fluoro-6-methylpyridin-2-yl)vinyl)-4-((3-(trifluoromethyl)phenyl)sulfonyl)-3,4-dihydro-2H-benzo[b][1,4]-oxazin-2-yl)propanoic acid] | 5 to 10 µM | < 0.5 µM
11 | Cc1ccnc(/C=C/c2ccc3c(c2)N(S(=O)(=O)c2cccc(C(F)(F)F)c2)C[C@H](CCC(=O)O)O3)c1F [Example 89CH, (S,E)-3-(6-(2-(3-fluoro-4-methylpyridin-2-yl)vinyl)-4-((3-(trifluoromethyl)phenyl)sulfonyl)-3,4-dihydro-2H-benzo[b][1,4]-oxazin-2-yl)propanoic acid] | > 10 µM | < 0.5 µM
12 | Cn1nccc1/C=C/c1ccc2c(c1)N(S(=O)(=O)c1cccc(C(F)(F)F)c1)C[C@H](CCC(=O)O)O2 [Example 89CI, (S,E)-3-(6-(2-(1-methyl-1H-pyrazol-5-yl)vinyl)-4-((3-(trifluoromethyl)phenyl)sulfonyl)-3,4-dihydro-2H-benzo[b][1,4]-oxazin-2-yl)propanoic acid] | > 10 µM | > 10 µM
13 | Cn1ncnc1/C=C/c1ccc2c(c1)N(S(=O)(=O)c1cccc(C(F)(F)F)c1)C[C@H](CCC(=O)O)O2 [Example 89CJ, (S,E)-3-(6-(2-(1-methyl-1H-1,2,4-triazol-5-yl)vinyl)-4-((3-(trifluoromethyl)phenyl)sulfonyl)-3,4-dihydro-2H-benzo[b][1,4]-oxazin-2-yl)propanoic acid] | > 10 µM | > 10 µM
14 | O=C(O)CC[C@H]1CN(S(=O)(=O)c2cccc(C(F)(F)F)c2)c2cc(/C=C/c3cccnc3C(F)(F)F)ccc2O1 [Example 89CK, (S,E)-3-(4-((3-(trifluoromethyl)-phenyl)sulfonyl)-6-(2-(2-(trifluoromethyl)pyridin-3-yl)vinyl)-3,4-dihydro-2H-benzo[b][1,4]oxazin-2-yl)propanoic acid] | 0.5 to 5 µM | < 0.5 µM
15 | O=C(O)CC[C@H]1CN(S(=O)(=O)c2cccc(C(F)(F)F)c2)c2cc(/C=C/c3c(Cl)cc(F)cc3Cl)ccc2O1 [Example 89CM, (S,E)-3-(6-(2,6-dichloro-4-fluorostyryl)-4-((3-(trifluoromethyl)phenyl)sulfonyl)-3,4-dihydro-2H-benzo[b][1,4]-oxazin-2-yl)propanoic acid] | 0.5 to 5 µM | < 0.5 µM
16 | O=C(O)CC[C@H]1CN(S(=O)(=O)c2cccc(C(F)(F)F)c2)c2cc(/C=C/c3cccc(Cl)c3C(F)(F)F)ccc2O1 [Example 89CO, (S,E)-3-(6-(3-chloro-2-(trifluoromethyl)styryl)-4-((3-(trifluoromethyl)phenyl)sulfonyl)-3,4-dihydro-2H-benzo[b][1,4]oxazin-2-yl)propanoic acid] | 0.5 to 5 µM | < 0.5 µM
17 | O=C(O)CC[C@H]1CN(S(=O)(=O)c2cccc(C(F)(F)F)c2)c2cc(/C=C/c3cc(F)ccc3C(F)(F)F)ccc2O1 [Example 89CP, (S,E)-3-(6-(5-fluoro-2-(trifluoromethyl)styryl)-4-((3-(trifluoromethyl)phenyl)sulfonyl)-3,4-dihydro-2H-benzo[b][1,4]-oxazin-2-yl)propanoic acid] | < 0.5 µM | < 0.5 µM
18 | CCn1cc(S(=O)(=O)N2C[C@H](CCC(=O)O)Oc3ccc(/C=C/c4ncccc4Cl)cc32)c(Cl)n1 [Example 89CQ, (S,E)-3-(4-((3-chloro-1-ethyl-1H-pyrazol-4-yl)sulfonyl)-6-(2-(3-chloropyridin-2-yl)vinyl)-3,4-dihydro-2H-benzo[b][1,4]oxazin-2-yl)propanoic acid] | 0.5 to 5 µM | < 0.5 µM
19 | CCOc1nn(CC)cc1S(=O)(=O)N1C[C@H](CCC(=O)O)Oc2ccc(/C=C/c3c(Cl)cccc3Cl)cc21 [Example 89CR, (S,E)-3-(6-(2,6-dichlorostyryl)-4-((3-ethoxy-1-ethyl-1H-pyrazol-4-yl)sulfonyl)-3,4-dihydro-2H-benzo[b][1,4]oxazin-2-yl)-propanoic acid] | < 0.5 µM | < 0.5 µM
20 | COC(=O)CC[C@H]1CN(S(=O)(=O)c2cccc(OC(F)F)c2)c2cc(/C=C/c3c(Cl)cccc3Cl)ccc2O1 [Example 89CS, methyl (S,E)-3-(6-(2,6-dichlorostyryl)-4-((3-(difluoromethoxy)phenyl)sulfonyl)-3,4-dihydro-2H-benzo[b][1,4]-oxazin-2-yl)propanoate] | < 0.5 µM | < 0.5 µM
21 | O=C(O)CC[C@H]1CN(S(=O)(=O)c2cccc(OC(F)F)c2)c2cc(/C=C/c3c(Cl)cccc3Cl)ccc2O1 [Example 89CT, (S,E)-3-(6-(2,6-dichlorostyryl)-4-((3-(difluoromethoxy)phenyl)-sulfonyl)-3,4-dihydro-2H-benzo[b][1,4]oxazin-2-yl)propanoic acid] | < 0.5 µM | < 0.5 µM
22 | COC(=O)CC[C@H]1CN(S(=O)(=O)c2ccc(F)c(OC(F)F)c2)c2cc(/C=C/c3c(F)cccc3Cl)ccc2O1 [Example 89CU, methyl (S,E)-3-(6-(2-chloro-6-fluorostyryl)-4-((3-(difluoromethoxy)-4-fluorophenyl)-sulfonyl)-3,4-dihydro-2H-benzo[b][1,4]oxazin-2-yl)propanoate] | 0.5 to 5 µM | < 0.5 µM
23 | O=C(O)CC[C@H]1CN(S(=O)(=O)c2ccc(F)c(OC(F)F)c2)c2cc(/C=C/c3c(F)cccc3Cl)ccc2O1 [Example 89CV, (S,E)-3-(6-(2-chloro-6-fluorostyryl)-4-((3-(difluoromethoxy)-4-fluorophenyl)-sulfonyl)-3,4-dihydro-2H-benzo[b][1,4]oxazin-2-yl)propanoic acid] | < 0.5 µM | < 0.5 µM
